Assay results taken from patent US20200339625A1, “NOVEL RADIOMETAL-BINDING COMPOUNDS FOR DIAGNOSIS OR TREATMENT OF PROSTATE SPECIFIC MEMBRANE ANTIGEN-EXPRESSING CANCER” (PROVINCIAL HEALTH SERVICES AUTHORITY, priority 2017, published 2020).

Experiments:
[1] = test system: mice bearing LNCaP tumor xenografts; assay: PET/CT imaging of 68Ga-labeled compounds; format: in vivo; settings: PET/CT images; for tumor uptake (qualitative comparison): compounds of FIG. 13
Description: 2.17 PET/CT Imaging and Biodistribution
(§1) Imaging and biodistribution experiments were performed using NODSCID 1L2RyKO male mice. Mice were anesthetized by inhalation with 2% isoflurane in oxygen, and implanted subcutaneously with 1×10^7 LNCaP cells behind left shoulder. Mice were imaged or used in biodistribution studies when the tumor grew up to reach 5-8 mm in diameter during 5-6 weeks.
PET imaging experiments were conducted using Siemens Inveon micro PET/CT scanner. Each tumor bearing mouse was injected 6-8 MBq of 68Ga-labeled tracer through the tail vein under anesthesia (2% isoflurane in oxygen). The mice were allowed to recover and roam freely in their cage. After 50 min, the mice were sedated again with 2% isoflurane in oxygen inhalation and positioned in the scanner. A 10-min CT scan was conducted first for localization and attenuation correction after segmentation for reconstructing the PET images. Then, a 10-min static PET imaging was performed to determined uptake in tumor and other organs. The mice were kept warm by a heating pad during acquisition. For imaging studies acquired at 3 h post-injection (p.i.), the mice were placed in the micro PET/CT scanner at 170 min p.i. Then, the CT acquisitions were conducted as described above, a 15-min static PET imaging was performed to determined uptake in tumor and other organs.

[2] = test system: mice bearing PSMA-expressing LNCAP cancer xenografts; assay: Biodistribution of 68Ga-labeled compounds; format: in vivo
Description: as §1
For biodistribution studies, the mice were injected with the radiotracer as described above. At predetermined time points (1 or 3 h), the mice was anesthetized with 2% isoflurane inhalation, and euthanized by CO2 inhalation. Blood was withdrawn immediately from the heart, and the organs/tissues of interest were collected. The collected organs/tissues were weighed and counted using an automatic gamma counter. The uptake in each organ/tissue was normalized to the injected dose using a standard curve, and expressed as the percentage of the injected dose per gram of tissue (% ID/g).

`O=C([O-])CN1CCN(CC(=O)[O-])CCN(CC(=O)NCC2CCC(C(=O)NC(Cc3ccc4cc5ccccc5cc4c3)C(=O)NCCCCC(NC(=O)NC(CCC(=O)O)C(=O)O)C(=O)O)CC2)CCN(CC(=O)[O-])CC1.[68Ga+3]` (centres unmarked) [^68Ga-HTK03027] was tested, and the excretion pathway [1] was “excreted mainly via the renal pathway”, the “tumor uptake (qualitative comparison)” value [1] was “comparable” and the Adrenal glands uptake ([2]; 1 h post-injection) was 3.55 ± 2.33 % ID/g. The Blood uptake ([2]; 1 h post-injection) was 1.56 ± 0.57 % ID/g, the Bone uptake ([2]; 1 h post-injection) was 0.70 ± 0.33 % ID/g and the Brain uptake ([2]; 1 h post-injection) was 0.06 ± 0.03 % ID/g. The Fat uptake ([2]; 1 h post-injection) was 1.03 ± 0.67 % ID/g, the Heart uptake ([2]; 1 h post-injection) was 0.56 ± 0.24 % ID/g and the Intestine uptake ([2]; 1 h post-injection) was 0.44 ± 0.12 % ID/g. It also gave a Kidneys uptake ([2]; 1 h post-injection) of 85.6 ± 73.5 % ID/g, a Lacrimal uptake ([2]; 1 h post-injection) of 1.00 ± 0.56 % ID/g and a Liver uptake ([2]; 1 h post-injection) of 0.46 ± 0.10 % ID/g. For the same molecule, the Lungs uptake ([2]; 1 h post-injection) was 1.66 ± 0.67 % ID/g, the Muscle uptake ([2]; 1 h post-injection) was 0.48 ± 0.37 % ID/g and the Pancreas uptake ([2]; 1 h post-injection) was 0.57 ± 0.20 % ID/g. It also gave a Salivary uptake ([2]; 1 h post-injection) of 1.86 ± 0.91 % ID/g, a Seminal uptake ([2]; 1 h post-injection) of 10.6 ± 10.9 % ID/g and a Spleen uptake ([2]; 1 h post-injection) of 3.36 ± 2.54 % ID/g. It also gave a Stomach uptake ([2]; 1 h post-injection) of 0.17 ± 0.10 % ID/g, a Tail uptake ([2]; 1 h post-injection) of 0.98 ± 0.38 % ID/g and a Testes uptake ([2]; 1 h post-injection) of 0.56 ± 0.18 % ID/g. The Thyroid uptake ([2]; 1 h post-injection) was 0.76 ± 0.33 % ID/g, the Tumor uptake ([2]; 1 h post-injection) was 13.3 ± 5.44 % ID/g and the “Tumor:Blood ratio” value ([2]; 1 h post-injection) was 8.57 ± 2.83. The “Tumor:Muscle ratio” value ([2]; 1 h post-injection) was 35.0 ± 18.7, the “Tumor:kidney ratio” value ([2]; 1 h post-injection) was 0.27 ± 0.20 and the Urine uptake ([2]; 1 h post-injection) was 844 ± 645 % ID/g.
`O=C([O-])CN1CCN(CC(=O)[O-])CCN(CC(=O)NCC2CCC(C(=O)NC(Cc3ccc4ccc5cccc6ccc3c4c56)C(=O)NCCCCC(NC(=O)NC(CCC(=O)O)C(=O)O)C(=O)O)CC2)CCN(CC(=O)[O-])CC1.[68Ga+3]` (centres unmarked) [^68Ga-HTK03029] was tested, and the excretion pathway [1] was “excreted mainly via the renal pathway”, the “tumor uptake (qualitative comparison)” value [1] was “comparable” and the Adrenal glands uptake ([2]; 1 h post-injection) was 4.91 ± 1.57 % ID/g. For the same molecule, the Blood uptake ([2]; 1 h post-injection) was 3.93 ± 0.91 % ID/g, the Bone uptake ([2]; 1 h post-injection) was 0.92 ± 0.14 % ID/g and the Brain uptake ([2]; 1 h post-injection) was 0.09 ± 0.02 % ID/g. For the same molecule, the Fat uptake ([2]; 1 h post-injection) was 1.57 ± 0.42 % ID/g, the Heart uptake ([2]; 1 h post-injection) was 1.25 ± 0.27 % ID/g and the Intestine uptake ([2]; 1 h post-injection) was 0.77 ± 0.11 % ID/g. For the same molecule, the Kidneys uptake ([2]; 1 h post-injection) was 198 ± 49.3 % ID/g, the Lacrimal uptake ([2]; 1 h post-injection) was 1.06 ± 0.49 % ID/g and the Liver uptake ([2]; 1 h post-injection) was 1.32 ± 0.63 % ID/g. It also gave a Lungs uptake ([2]; 1 h post-injection) of 3.59 ± 0.69 % ID/g, a Muscle uptake ([2]; 1 h post-injection) of 0.63 ± 0.10 % ID/g and a Pancreas uptake ([2]; 1 h post-injection) of 0.94 ± 0.18 % ID/g. For the same molecule, the Salivary uptake ([2]; 1 h post-injection) was 3.27 ± 1.02 % ID/g, the Seminal uptake ([2]; 1 h post-injection) was 6.74 ± 10.7 % ID/g and the Spleen uptake ([2]; 1 h post-injection) was 7.08 ± 5.08 % ID/g. The Stomach uptake ([2]; 1 h post-injection) was 0.31 ± 0.08 % ID/g, the Tail uptake ([2]; 1 h post-injection) was 2.18 ± 0.65 % ID/g and the Testes uptake ([2]; 1 h post-injection) was 1.02 ± 0.13 % ID/g. The Thyroid uptake ([2]; 1 h post-injection) was 1.57 ± 0.32 % ID/g, the Tumor uptake ([2]; 1 h post-injection) was 13.9 ± 6.58 % ID/g and the “Tumor:Blood ratio” value ([2]; 1 h post-injection) was 3.39 ± 1.01. For the same molecule, the “Tumor:Muscle ratio” value ([2]; 1 h post-injection) was 21.3 ± 7.50, the “Tumor:kidney ratio” value ([2]; 1 h post-injection) was 0.07 ± 0.02 and the Urine uptake ([2]; 1 h post-injection) was 175 ± 178 % ID/g.
`O=C([O-])CN1CCN(CC(=O)[O-])CCN(CC(=O)NCC2CCC(C(=O)NC(Cc3c4ccccc4cc4ccccc34)C(=O)NCCCCC(NC(=O)NC(CCC(=O)O)C(=O)O)C(=O)O)CC2)CCN(CC(=O)[O-])CC1.[68Ga+3]` (centres unmarked) [^68Ga-HTK03041] was tested, and the “change of tumor uptake from 1 h to 3 h post-injection” value [1] was “increases from 1 h to 3 h post-injection”, the excretion pathway [1] was “excreted mainly via the renal pathway” and the “tumor uptake (qualitative comparison)” value [1] was “highest tumor uptake”. It also gave an Adrenal glands uptake ([2]; 1 h post-injection) of 8.90 ± 2.56 % ID/g, a Blood uptake ([2]; 1 h post-injection) of 1.43 ± 0.30 % ID/g and a Bone uptake ([2]; 1 h post-injection) of 1.29 ± 0.45 % ID/g. For the same molecule, the Brain uptake ([2]; 1 h post-injection) was 0.10 ± 0.05 % ID/g, the Fat uptake ([2]; 1 h post-injection) was 2.06 ± 0.59 % ID/g and the Heart uptake ([2]; 1 h post-injection) was 1.82 ± 0.21 % ID/g. The Intestine uptake ([2]; 1 h post-injection) was 1.14 ± 0.18 % ID/g, the Kidneys uptake ([2]; 1 h post-injection) was 170 ± 26.4 % ID/g and the Lacrimal uptake ([2]; 1 h post-injection) was 2.44 ± 1.79 % ID/g. For the same molecule, the Liver uptake ([2]; 1 h post-injection) was 1.38 ± 0.25 % ID/g, the Lungs uptake ([2]; 1 h post-injection) was 4.32 ± 0.62 % ID/g and the Muscle uptake ([2]; 1 h post-injection) was 0.75 ± 0.09 % ID/g. For the same molecule, the Pancreas uptake ([2]; 1 h post-injection) was 1.47 ± 0.16 % ID/g, the Salivary uptake ([2]; 1 h post-injection) was 4.99 ± 0.88 % ID/g and the Seminal uptake ([2]; 1 h post-injection) was 1.03 ± 0.27 % ID/g. It also gave a Spleen uptake ([2]; 1 h post-injection) of 8.95 ± 3.22 % ID/g, a Stomach uptake ([2]; 1 h post-injection) of 0.41 ± 0.11 % ID/g and a Tail uptake ([2]; 1 h post-injection) of 1.36 ± 0.45 % ID/g. It also gave a Testes uptake ([2]; 1 h post-injection) of 1.34 ± 0.22 % ID/g, a Thyroid uptake ([2]; 1 h post-injection) of 2.48 ± 0.44 % ID/g and a Tumor uptake ([2]; 1 h post-injection) of 23.1 ± 6.11 % ID/g. The “Tumor:Blood ratio” value ([2]; 1 h post-injection) was 17.3 ± 7.24, the “Tumor:Muscle ratio” value ([2]; 1 h post-injection) was 31.6 ± 12.1 and the “Tumor:kidney ratio” value ([2]; 1 h post-injection) was 0.14 ± 0.04. The Urine uptake ([2]; 1 h post-injection) was 173 ± 93.01 % ID/g, the Adrenal glands uptake ([2]; 3 h post-injection) was 4.04 ± 1.20 % ID/g and the Blood uptake ([2]; 3 h post-injection) was 0.83 ± 0.27 % ID/g. For the same molecule, the Bone uptake ([2]; 3 h post-injection) was 0.98 ± 0.40 % ID/g, the Brain uptake ([2]; 3 h post-injection) was 0.06 ± 0.02 % ID/g and the Fat uptake ([2]; 3 h post-injection) was 1.06 ± 0.20 % ID/g. The Heart uptake ([2]; 3 h post-injection) was 0.93 ± 0.17 % ID/g, the Intestine uptake ([2]; 3 h post-injection) was 0.67 ± 0.09 % ID/g and the Kidneys uptake ([2]; 3 h post-injection) was 121 ± 37.6 % ID/g. It also gave a Lacrimal uptake ([2]; 3 h post-injection) of 2.82 ± 3.84 % ID/g, a Liver uptake ([2]; 3 h post-injection) of 0.82 ± 0.15 % ID/g and a Lungs uptake ([2]; 3 h post-injection) of 2.14 ± 0.39 % ID/g. The Muscle uptake ([2]; 3 h post-injection) was 0.40 ± 0.06 % ID/g, the Pancreas uptake ([2]; 3 h post-injection) was 0.71 ± 0.12 % ID/g and the Salivary uptake ([2]; 3 h post-injection) was 2.11 ± 0.57 % ID/g. For the same molecule, the Seminal uptake ([2]; 3 h post-injection) was 4.56 ± 9.00 % ID/g, the Spleen uptake ([2]; 3 h post-injection) was 4.19 ± 1.58 % ID/g and the Stomach uptake ([2]; 3 h post-injection) was 0.26 ± 0.06 % ID/g. For the same molecule, the Tail uptake ([2]; 3 h post-injection) was 0.86 ± 0.73 % ID/g, the Testes uptake ([2]; 3 h post-injection) was 0.89 ± 0.12 % ID/g and the Thyroid uptake ([2]; 3 h post-injection) was 1.19 ± 0.23 % ID/g. For the same molecule, the Tumor uptake ([2]; 3 h post-injection) was 28.2 ± 9.17 % ID/g, the “Tumor:Blood ratio” value ([2]; 3 h post-injection) was 36.6 ± 15.4 and the “Tumor:Muscle ratio” value ([2]; 3 h post-injection) was 73.8 ± 30.9. For the same molecule, the “Tumor:kidney ratio” value ([2]; 3 h post-injection) was 0.26 ± 0.13 and the Urine uptake ([2]; 3 h post-injection) was 171 ± 93.3 % ID/g.
